The values below come from patent publication US6313096A, “Inhibitors of trypsin-like enzymes” (Trigen Limited, priority 2000, dated 2001).

Test [1] deals with T1, thrombin (Homo sapiens, UniProt P00734). The experiment in a line: thrombin time determination. The class given is biochemical. As to the method: The activity of the product as a thrombin inhibitor is measured by determination of the thrombin time essentially as described in European Patent Application 293 881, page 51. Using a 1 micromolar concentration of inhibitor, a mean thrombin time of 114 seconds is found, compared with 16 seconds in the absence of inhibitor.

For test [2], the target named is T1, thrombin. Conditions: reversible and irreversible inhibitors of thrombin; cited from earlier work.

Turning to Z-D-Phe-Pro-BOMe-OPin [formula XII], the “thrombin inhibitor (in words)” value on thrombin [1] is given as “strong thrombin inhibitor”. The compound further displayed a mean thrombin time at thrombin [1] (1 micromolar concentration of inhibitor, 16 seconds in the absence of inhibitor) of 114 s.
For the compound `N=C(N)NCCC[C@@H](C=O)NC(=O)[C@@H]1CCCN1C(=O)[C@H](N)Cc1ccccc1` [D-Phe-Pro-Arginal], the inhibition in vitro at thrombin [2] was ~10^-8 M.
In the case of `NC(N)=NCCC[C@H](NC(=O)[C@@H]1CCCN1C(=O)[C@H](N)Cc1ccccc1)C(=O)CCl` [D-Phe-Pro-Arg-CH2 Cl], the inhibition in vitro on thrombin [2] is ~10^-8 M.
